From article PMC6422423, “Constitutively active BRS3 is a genuinely orphan GPCR in placental mammals” (PLoS Biology, 2019)

Key:
[1] = target: turtle BRS3 (tBRS3); assay: Radioligand binding (competition); design: species or system Chrysemys picta; conditions: transfected HEK293 cells, 1 h 21°C, pH 7.4, mean ± SE, at least three experiments
Method: (§1) HEK293 cells were seeded in a 10-cm tissue culture dish at a density of 10^6 cells per dish and grown overnight at 37°C in growth medium. The following morning, 5 μg of different species’ BRS3 plasmids were transfected. After 6 h, the medium was replaced with growth medium. Cells were maintained at 37°C in a 5% CO2 atmosphere and used 48 h later for binding assays. The positive control group included transfected GRPR and NMBR; the test group consisted of transfected BRS3 from different species. Then, [^125I]-Tyr^42-GRP and [^125I]-Tyr-NMB were used as the ligands to assess affinity to the various receptors. […] The cell concentration was adjusted to between 0.05 and 4 × 10^6 cells/ml for each receptor such that less than 20% of the total added radioactive ligand was bound during the incubation, and the results were compared to cells transfected with GRPR or NMBR adjusted in concentration to bind a similar amount of ligand. After the incubation, 100 μl aliquots were added to 1.5-ml microfuge tubes, which contained 100 μl of binding buffer to determine the total radioactivity. The bound tracer was separated from unbound tracer by pelleting the cells through the binding buffer by centrifugation at 10,000g in a Microfuge E (Beckman) for 3 min. The supernatant was aspirated, and the pelleted cells were rinsed twice with a washing buffer that contained 1% (w/v) BSA in PBS. The amount of radioactivity bound to the cells was measured in a Cobra II Gamma counter (Packard Instruments). Binding was expressed as the percentage of total radioactivity that was associated with the cell pellet. All binding values represented saturable binding; nonsaturable binding was <15% of the total binding in all experiments. Each point was measured in duplicate, and each experiment was replicated at least four times. […] All the experiment data were calculated using 1 pM ligand-treated as 100% control.

[2] = target: spotted gar BRS3 (sBRS3); assay: Radioligand binding (competition); design: species or system Lepisosteus oculatus; conditions: transfected HEK293 cells, 1 h 21°C, pH 7.4, mean ± SE, at least three experiments
Method: as §1

[3] = target: T1, GRPR (Homo sapiens, UniProt P30550); assay: Intracellular calcium assay; type: cell-based; conditions: 10 nM peptide, HEK293, Fluo8, GRPR
T1 construct: HA; expressed in transfected cells; host or cells: HEK293
Method: (§2) Intracellular calcium was measured using the non-wash calcium assay Fluo8 kit (ab112129, Abcam) according to the manufacturer’s instructions. Briefly, HEK293 cells were seeded in 24-well plates and were transfected with GRPR, NMBR, BRS3, or the empty vector plasmid pcDNA3.1-V5-His (300 ng) and incubated overnight at 37°C with 5% CO2. The next day, the cells were replated into a 96-well assay plate (black plate and clear bottom). After 12 h, growth media were aspirated, and calcium dye was added. […] The basal fluorescence intensity was recorded 15 times at 1 Hz for […]. The results were normalized to the average basal fluorescence intensity in ratio, and the peak response was used for the result calculation. Calcium fold was calculated using no stimulation data as standard value.

[4] = test system: chicken BRS3 (cBRS3); assay: Intracellular calcium assay (WT and mutants); type: cell-based, Gallus gallus; conditions: 10 nM peptide, HEK293, Fluo8, cBRS3
Method: as §2

[5] = test system: turtle BRS3 (tBRS3); assay: Intracellular calcium assay (WT and mutants); type: cell-based, Chrysemys picta; conditions: 10 nM peptide; for Calcium fold: HEK293, Fluo8, tBRS3; for Intracellular Ca2+, mutants vs wild type (in words): tBRS3 Q127R, P205S, and R294H, each
Method: as §2

[6] = test system: spotted gar BRS3 (sBRS3); assay: Intracellular calcium assay (WT and mutants); type: cell-based, Lepisosteus oculatus; conditions: for Calcium fold: 10 nM peptide, HEK293, Fluo8, sBRS3; for Intracellular Ca2+, mutants (in words): sBRS3 Q127R, P205S, and R294H
Method: as §2

[7] = test system: human BRS3 (hBRS3); assay: ERK1/2 phosphorylation (WT and mutants); type: cell-based
Method: (§3) For ERK1/2 phosphorylation, HEK293 cells were seeded in 24-well plates and transfected with GRPR, NMBR, BRS3, mutants of different species’ BRS3, or an empty vector plasmid, pcDNA3.1-V5-His plasmid (300 ng). […] Each sample with an equal amount of protein was mixed with 6×SDS sample buffer, boiled for 5 min, and separated on 10% SDS-polyacrylamide gel electrophoresis (PAGE) before transferring the proteins onto a PVDF membrane. The membranes were then blocked at room temperature for 1 h with 5% milk powder in Tris-buffered saline-Tween (TBST), followed by subsequent incubation at 4°C overnight in TBST containing the different primary antibodies (1:1,000 dilution). After washing three times (10 min each time) with TBST, the membranes were incubated for 1 h in TBST containing the secondary antibodies (1:2,000 dilution), followed by washing three times (10 min each time) with TBST, prior to detection by chemiluminescence.

[8] = test system: mouse BRS3 (mBRS3); assay: ERK1/2 phosphorylation (WT and mutants); type: cell-based; conditions: mBRS3 R127Q, S205P, and H294R, all three
Method: as §3

[9] = test system: aardvark BRS3 (aBRS3); assay: ERK1/2 phosphorylation (WT and mutants); type: cell-based, Orycteropus afer; conditions: aBRS3 R127Q, S205P, and H294R, all three
Method: as §3

[10] = test system: BRS3 receptors of placental mammals; assay: Luciferase reporter, GRP/NMB stimulated, placental pooled; type: cell-based, human, mouse, dog, and aardvark; conditions: CRE/NFAT-RE/SRF-RE/SRE reporters; 0/10/100/1,000 nM, 12 h, HEK293
Method: To detect constitutive activity of BRS3, HEK293 cells were seeded in 24-well plates and cotransfected with the CRE/NFAT-RE/SRF-RE/SRE luciferase reporter plasmids (50 ng), the BRS3 from different species, or BRS3 mutants with different doses (10 ng/50 ng/150 ng); after 24 h, cells were further incubated in serum-free media for another 12 h before luciferase assay. As for peptide supplementation treatment, HEK293 cells were cotransfected with the CRE/NFAT-RE/SRF-RE/SRE luciferase reporter plasmids (50 ng) and various genes (300 ng) of the bombesin receptor family. […] Luciferase activities were determined using luciferase assay kits (Beyotime, Shanghai, China) and normalized to β-galactosidase activity. All experiments were performed at least three times in triplicates. HEK293 cells transfected with pcDNA were used as a blank control in all luciferase experiments, and the fold was calculated compared to blank control.

[11] = target: T1, GRPR; assay: Radioligand binding (competition); conditions: [125I]-Tyr42-GRP
Method: HEK293 cells were seeded in a 10-cm tissue culture dish at a density of 10^6 cells per dish and grown overnight at 37°C in growth medium. The following morning, 5 μg of different species’ BRS3 plasmids were transfected. After 6 h, the medium was replaced with growth medium. Cells were maintained at 37°C in a 5% CO2 atmosphere and used 48 h later for binding assays. The positive control group included transfected GRPR and NMBR; the test group consisted of transfected BRS3 from different species. Then, [^125I]-Tyr^42-GRP and [^125I]-Tyr-NMB were used as the ligands to assess affinity to the various receptors. […] After the incubation, 100 μl aliquots were added to 1.5-ml microfuge tubes, which contained 100 μl of binding buffer to determine the total radioactivity. […] The amount of radioactivity bound to the cells was measured in a Cobra II Gamma counter (Packard Instruments). Binding was expressed as the percentage of total radioactivity that was associated with the cell pellet. […] Each point was measured in duplicate, and each experiment was replicated at least four times. […] All the experiment data were calculated using 1 pM ligand-treated as 100% control.

T1 sequence (P30550 whole entry, species assumed): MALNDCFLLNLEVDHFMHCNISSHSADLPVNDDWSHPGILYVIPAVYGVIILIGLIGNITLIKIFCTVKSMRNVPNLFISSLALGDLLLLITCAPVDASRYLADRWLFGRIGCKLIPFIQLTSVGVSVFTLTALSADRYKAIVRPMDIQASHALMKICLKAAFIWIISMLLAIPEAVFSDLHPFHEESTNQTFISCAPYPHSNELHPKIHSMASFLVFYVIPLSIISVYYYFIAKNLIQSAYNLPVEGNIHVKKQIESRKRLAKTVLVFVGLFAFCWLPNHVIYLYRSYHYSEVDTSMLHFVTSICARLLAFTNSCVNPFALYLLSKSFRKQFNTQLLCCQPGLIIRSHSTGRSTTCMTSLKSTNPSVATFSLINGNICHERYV

| Substance | IC50 ([1]; 50 pM [125I]-Tyr42-GRP) | IC50 ([1]; 50 pM [125I]-Tyr-NMB) | IC50 ([2]; 50 pM [125I]-Tyr42-GRP) | IC50 ([2]; 50 pM [125I]-Tyr-NMB) | Intracellular Ca2+, mutants vs wild type (in words) [5] | Intracellular Ca2+, mutants (in words) [6] | ERK phosphorylation, mutant (in words) ([7]; hBRS3 H294R) | ERK phosphorylation, mutant (in words) ([7]; hBRS3 R127Q) | ERK phosphorylation, mutant (in words) ([7]; hBRS3 S205P) | ERK phosphorylation, mutants (in words) [8] | ERK phosphorylation, mutants (in words) [9] | Luciferase stimulation (in words) [10] | further results |
| --- | --- | --- | --- | --- | --- | --- | --- | --- | --- | --- | --- | --- | --- |
| GSHWAVGHLM-NH2 [GRP, gastrin-releasing peptide] | 0.14 nM | 0.28 nM | 0.17 nM | 0.54 nM | remarkable decrease of cellular Ca^2+ ions | significant effects | could be detected | could be detected | the effect is not obvious | lead to ERK phosphorylation signal | lead to ERK phosphorylation signal | stimulation of luciferase units cannot be detected | Calcium fold ([3]; replicate 1): 5.512 fold; Calcium fold ([3]; replicate 2): 5.7711 fold; Calcium fold ([3]; replicate 3): 5.9191 fold; Calcium fold ([4]; replicate 1): 5.1641 fold; Calcium fold ([4]; replicate 2): 5.5593 fold; Calcium fold ([4]; replicate 3): 5.8165 fold; Calcium fold ([5]; replicate 1): 5.1678 fold; Calcium fold ([5]; replicate 2): 5.2199 fold; Calcium fold ([5]; replicate 3): 5.5876 fold; Calcium fold ([6]; replicate 1): 4.5257 fold; Calcium fold ([6]; replicate 2): 4.9378 fold; Calcium fold ([6]; replicate 3): 5.3682 fold |
| neuromedin B [NMB] | 1.14 nM | 2.82 nM | 1.74 nM | 2.65 nM | remarkable decrease of cellular Ca^2+ ions | significant effects | could be detected | could be detected | the effect is not obvious | lead to ERK phosphorylation signal | lead to ERK phosphorylation signal | stimulation of luciferase units cannot be detected | Inhibition of GRPR–GRP binding (in words) [11]: very low affinity |
